Earlier results as cited in patent publication US20090062246A1, “THERAPEUTIC TREATMENT-014” (ASTRAZENECA AB, priority 2007, published 2009).

Biological target: T1, ETB receptor (Homo sapiens, UniProt P24530)
T1 sequence (P24530 27-442): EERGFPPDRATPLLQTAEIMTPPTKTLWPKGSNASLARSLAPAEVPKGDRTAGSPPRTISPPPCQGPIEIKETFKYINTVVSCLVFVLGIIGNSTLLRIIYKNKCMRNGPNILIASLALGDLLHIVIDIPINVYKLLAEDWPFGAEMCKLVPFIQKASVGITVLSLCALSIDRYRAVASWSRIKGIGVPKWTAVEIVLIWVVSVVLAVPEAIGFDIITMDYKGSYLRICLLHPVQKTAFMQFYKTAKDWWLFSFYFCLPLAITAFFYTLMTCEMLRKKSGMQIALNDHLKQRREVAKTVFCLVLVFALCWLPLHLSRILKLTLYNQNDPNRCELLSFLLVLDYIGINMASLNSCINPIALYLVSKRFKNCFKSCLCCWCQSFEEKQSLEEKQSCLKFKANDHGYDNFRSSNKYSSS
Settings: described in WO04/018044

- affinity for the ETB receptor: no measurable affinity
SMILES: COc1nc(C)cnc1NS(=O)(=O)c1cccnc1-c1ccc(-c2nnco2)cc1 [Compound (I), N-(3-methoxy-5-methylpyrazin-2-yl)-2-(4-[1,3,4-oxadiazol-2-yl]phenyl)pyridine-3-sulphonamide]
